Laboratory results: US9630961B2, “Arginine methyltransferase inhibitors and uses thereof” (Epizyme, Inc., priority 2013, dated 2017)

What follows are compounds tested against T1, CARM1 (PRMT4) (Homo sapiens, UniProt Q86X55) (assay: CARM1 Biochemical Assay (3H-SAM Flashplate, peptide substrate)). Settings: 30 min preincubation, room temperature.
T1 construct: Flag-CARM1-His; made in house; host or cells: HEK 293F cells (BacMam virus)
T1 sequence (Q86X55 1-585 isoform Q86X55-1): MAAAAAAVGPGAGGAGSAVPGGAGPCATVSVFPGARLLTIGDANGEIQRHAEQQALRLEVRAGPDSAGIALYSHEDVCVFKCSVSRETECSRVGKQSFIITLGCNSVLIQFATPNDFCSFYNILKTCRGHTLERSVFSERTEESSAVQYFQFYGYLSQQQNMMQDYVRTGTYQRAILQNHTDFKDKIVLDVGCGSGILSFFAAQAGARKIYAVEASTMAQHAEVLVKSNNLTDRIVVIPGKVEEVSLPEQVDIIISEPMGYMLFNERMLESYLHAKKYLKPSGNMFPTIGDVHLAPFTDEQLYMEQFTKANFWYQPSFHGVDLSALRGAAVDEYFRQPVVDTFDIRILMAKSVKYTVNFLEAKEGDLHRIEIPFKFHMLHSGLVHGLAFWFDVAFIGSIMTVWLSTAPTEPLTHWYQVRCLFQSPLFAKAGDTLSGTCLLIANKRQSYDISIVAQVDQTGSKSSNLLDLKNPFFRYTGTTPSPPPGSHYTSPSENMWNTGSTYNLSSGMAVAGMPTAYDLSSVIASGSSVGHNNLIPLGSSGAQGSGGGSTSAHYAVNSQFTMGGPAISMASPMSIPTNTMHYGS
Description: S-adenosylmethionine (SAM), S-adenosylhomocysteine (SAH), bicine, Tween20, dimethylsulfoxide (DMSO), bovine skin gelatin (BSG), sodium butyrate and Tris(2-carboxyethyl)phosphine hydrochloride solution (TCEP) were purchased from Sigma-Aldrich at the highest level of purity possible. ^3H-SAM was purchase from American Radiolabeled Chemicals with a specific activity of 80 Ci/mmol. 384-well streptavidin Flashplates were purchased from PerkinElmer.
Peptide representative of human histone H3 residues 16-30 was synthesized with an N-terminal linker-affinity tag motif and a C-terminal amide cap by 21st Century Biochemicals. The peptide was purified by high-performance liquid chromatography (HPLC) to greater than 95% purity and confirmed by liquid chromatography mass spectrometry (LC-MS). The sequence was Biot-Ahx-[…]-amide and contained a monomethylated arginine at position 26 (SEQ ID NO.:14).
Human CARM1 (PRMT4) (NM_199141.1) transcript clone was amplified from an HEK 293 cDNA library, incorporating a flanking 5′ sequence encoding a FLAG tag ([…]) (SEQ ID NO.:6) fused directly to Ala 2 of CARM1 and 3′ sequence encoding a hexa His sequence ([…]) (SEQ ID NO.:15) fused directly to Ser 608. The gene sequence encoding isoform1 containing a deletion of amino acids 539-561 was amplified subsequently and subcloned into pFastBacMam (Viva Biotech).
Recombinant baculovirus were generated according to Bac-to-Bac kit instructions (Life Technologies). […] Infections were carried out at 37° C. for 48 hours, harvested by centrifugation, and stored at −80° C. for purification.
Column was washed with 500 mM NaCl in buffer A and Flag-CARM1-His was eluted with 200 ug/ml FLAG peptide in buffer A. Pooled fractions were dialyzed in 20 mM Tris, 150 mM NaCl, 5% glycerol and 1 mM DTT, pH 7.8. The purity of recovered protein was 94.
General Procedure for CARM1 Enzyme Assays on Peptide Substrates.
The assays were all performed in a buffer consisting of 20 mM Bicine (pH=7.6), 1 mM TCEP, 0.005% BSG, and 0.002% Tween 20, prepared on the day of use. Compounds in 100% DMSO (1 ul) were spotted into a polypropylene 384-well V-bottom plates (Greiner) using a Platemate Plus outfitted with a 384-channel head (Thermo Scientific). DMSO (1 ul) was added to Columns 11, 12, 23, 24, rows A-H for the maximum signal control and 1 ul of SAH, a known product and inhibitor of CARM1, was added to columns 11, 12, 23, 24, rows I-P for the minimum signal control. A cocktail (40 ul) containing the CARM1 enzyme was added by Multidrop Combi (Thermo-Fisher). The compounds were allowed to incubate with CARM1 for 30 min at room temperature, then a cocktail (10 ul) containing ^3H-SAM and peptide was added to initiate the reaction (final volume=51 ul). The final concentrations of the components were as follows: CARM1 was 0.25 nM, ^3H-SAM was 30 nM, peptide was 250 nM, SAH in the minimum signal control wells was 1 mM, and the DMSO concentration was 2%. The assays were stopped by the addition of non-radiolabeled SAM (10 ul) to a final concentration of 300 uM, which dilutes the ^3H-SAM to a level where its incorporation into the peptide substrate is no longer detectable. 50 ul of the reaction in the 384-well polypropylene plate was then transferred to a 384-well Flashplate and the biotinylated peptides were allowed to bind to the streptavidin surface for at least 1 hour before being washed once with 0.1% Tween20 in a Biotek ELx405 plate washer. The plates were then read in a PerkinElmer TopCount plate reader to measure the quantity of ^3H-labeled peptide bound to the Flashplate surface, measured as disintegrations per minute (dpm) or alternatively, referred to as counts per minute (cpm).
Where dpm=disintegrations per minute, cmpd=signal in assay well, and min and max are the respective minimum and maximum signal controls.
Where top and bottom are the normally allowed to float, but may be fixed at 100 or 0 respectively in a 3-parameter fit. […]

SMILES	IC50
CN(CCN)Cc1c[nH]nc1-c1cnn(C)c1 [Compound 8]	3.01 to 10 µM
COc1ncc(-c2n[nH]cc2CN(C)CCN)cn1 [Compound 11]	≥ 10 µM
CN(CCN)Cc1c[nH]nc1-c1ccc2scnc2c1 [Compound 9]	1.01 to 3 µM
Cc1noc(C)c1-c1n[nH]cc1CN(C)CCN [Compound 10]	≥ 10 µM
CN(CCN)Cc1c[nH]nc1-c1cn[nH]c1 [Compound 12]	≥ 10 µM
CN(CCN)Cc1c[nH]nc1-c1cncnc1 [Compound 4]	≥ 10 µM
CN(CCN)Cc1c[nH]nc1-c1cnc2[nH]ccc2c1 [Compound 13]	0.101 to 1 µM

Next, values leading:

IC50	SMILES
3.01 to 10 µM	CN(CCN)Cc1c[nH]nc1-c1ccsc1 [Compound 3]
≥ 10 µM	CN(CCN)Cc1c[nH]nc1-c1cccs1 [Compound 5]
≥ 10 µM	CN(CCN)Cc1c[nH]nc1-c1cc[nH]n1 [Compound 14]
3.01 to 10 µM	CN(CCN)Cc1c[nH]nc1-c1ccoc1 [Compound 7]
3.01 to 10 µM	CN(CCN)Cc1c[nH]nc1-c1ccco1 [Compound 6]
